In brackets after ≈: the same amount, converted by molar mass. Where two headings read alike, the source gives them in different places.
Key:
Test in all cases: MIC by microdilution in cation-adjusted Mueller-Hinton Broth (NCCLS)
Format in all cases: cell-based
[1] = test system: S. aureus A798; conditions: Staphylococcus aureus
Experimental: (§1) These assays have been performed following the description given in “Methods for dilution Antimicrobial Susceptibility Tests for Bacteria that Grow Aerobically, 4th ed.; Approved standard: NCCLS Document M7-A4; National Committee for Clinical Laboratory Standards Villanova, Pa., USA, 1997”. Minimal inhibitory concentrations (MICs; mg/l) were determined in cation-adjusted Mueller-Hinton Broth (BBL) by a microdilution method following NCCLS guidelines (National Committee for Clinical Laboratory Standards. Methods for Dilution Antimicrobial Susceptibility). The pH of the test medium was 7.2-7.3. All the above Examples were tested against several Gram positive and Gram negative bacteria.

[2] = test system: M. catarrhalis A894; conditions: Moraxella catarrhalis, pH of test medium 7.2-7.3
Experimental: as §1

[3] = test system: S. Pneumoniae 49619; conditions: Streptococcus pneumoniae
Experimental: as §1

[4] = A798, pH of test medium 7.2-7.3, read-out: MIC S. aureus A798
[5] = pH of test medium 7.2-7.3, read-out: MIC S. Pneumoniae 49619

SMILES: O=C(O)c1cn(C2CC2)c2c3c(c(F)cc2c1=O)N1CCC(O)(COc2ccc(N4C[C@H](CO)OC4=O)cc2F)C[C@H]1CO3 (mixture of isomers) [Example 6, (6aS,8RS)-4-cyclopropyl-11-fluoro-8-[2-fluoro-4-((R)-5-hydroxymethyl-2-oxo-oxazolidin-3-yl)-phenoxymethyl]-8-hydroxy-1-oxo-1,4,6,6a,7,8,9,10-octahydro-5-oxa-4,10a-diaza-chrysene-2-carboxylic acid]
- MIC [1, 4]: 0.5 µg/mL
- MIC [2]: 0.5 µg/mL
- MIC [3, 5]: 0.25 µg/mL

SMILES: O=C(O)c1cn(C2CC2)c2c3c(c(F)cc2c1=O)N1CCC(O)(COc2ccc(N4C[C@H](CO)OC4=O)cc2F)C[C@@H]1CO3 (mixture of isomers) [Example 7, (6aR,8RS)-4-cyclopropyl-11-fluoro-8-[2-fluoro-4-((R)-5-hydroxymethyl-2-oxo-oxazolidin-3-yl)-phenoxymethyl]-8-hydroxy-1-oxo-1,4,6,6a,7,8,9,10-octahydro-5-oxa-4,10a-diaza-chrysene-2-carboxylic acid]
- MIC [3, 5]: 0.25 µg/mL

SMILES: O=C(O)c1cn(C2CC2)c2c3c(c(F)cc2c1=O)N1C[C@](O)(COc2ccc(N4C[C@H](CO)OC4=O)cc2F)C[C@H]1CO3 [Example 1, (13S,16S)-1-cyclopropyl-7-fluoro-16-[2-fluoro-4-((R)-5-hydroxymethyl-2-oxo-oxazolidin-3-yl)-phenoxymethyl]-16-hydroxy-4-oxo-1,4,13,15,16,17-hexahydro-12H-11-oxa-1,14-diaza-cyclopenta[a]phenanthrene-3-carboxylic acid]
- MIC [3, 5]: ≤ 0.063 µg/mL

SMILES: C[C@@H](N)C(=O)OC[C@H]1CN(c2ccc(OC[C@]3(O)C[C@H]4COc5c(c(F)cc6c(=O)c(C(=O)O)cn(C7CC7)c56)N4C3)c(F)c2)C(=O)O1 [Example 2, (13S,16S)-16-{4-[(R)-5-((R)-2-amino-propionyloxymethyl)-2-oxo-oxazolidin-3-yl]-2-fluoro-phenoxymethyl}-1-cyclopropyl-7-fluoro-16-hydroxy-4-oxo-1,4,13,15,16,17-hexahydro-12H-11-oxa-1,14-diaza-cyclopenta[a]phenanthrene-3-carboxylic acid]
- MIC [3, 5]: 0.125 µg/mL (≈ 0.186 µM)

SMILES: CCn1cc(C(=O)O)c(=O)c2cc(F)c3c(c21)OC[C@@H]1C[C@@](O)(COc2ccc(N4C[C@H](CO)OC4=O)cc2F)CN31 [Example 3, (13S,16S)-1-ethyl-7-fluoro-16-[2-fluoro-4-((R)-5-hydroxymethyl-2-oxo-oxazolidin-3-yl)-phenoxymethyl]-16-hydroxy-4-oxo-1,4,13,15,16,17-hexahydro-12H-11-oxa-1,14-diaza-cyclopenta[a]phenanthrene-3-carboxylic acid]
- MIC [1, 4]: 0.5 µg/mL (≈ 0.851 µM)
- MIC [2]: 0.125 µg/mL (≈ 0.213 µM)
- MIC [3, 5]: 0.25 µg/mL (≈ 0.426 µM)

SMILES: O=C(O)c1cn(C2CC2)c2c3c(c(F)cc2c1=O)N1C[C@H](COc2ccc(N4C[C@H](CO)OC4=O)cc2F)C[C@H]1CO3 [Example 4, (13S,16R)-1-cyclopropyl-7-fluoro-16-[2-fluoro-4-((R)-5-hydroxymethyl-2-oxo-oxazolidin-3-yl)-phenoxymethyl]-4-oxo-1,4,13,15,16,17-hexahydro-12H-11-oxa-1,14-diaza-cyclopenta[a]phenanthrene-3-carboxylic acid]
- MIC [3, 5]: 0.25 µg/mL (≈ 0.428 µM)

SMILES: O=C(O)c1cn(C2CC2)c2c3c(c(F)cc2c1=O)N1C[C@@H](COc2ccc(N4C[C@H](CO)OC4=O)cc2F)C[C@H]1CO3 [Example 5, (13S,16S)-1-cyclopropyl-7-fluoro-16-[2-fluoro-4-((R)-5-hydroxymethyl-2-oxo-oxazolidin-3-yl)-phenoxymethyl]-4-oxo-1,4,13,15,16,17-hexahydro-12H-11-oxa-1,14-diaza-cyclopenta[a]phenanthrene-3-carboxylic acid]
- MIC [3, 5]: 0.25 µg/mL (≈ 0.428 µM)

SMILES: O=C(O)c1cn(C2CC2)c2c3c(c(F)cc2c1=O)N1C[C@@](COc2ccc(N4C[C@H](CO)OC4=O)cc2F)(OP(=O)(O)O)C[C@H]1CO3 [Example 8, (13S,16S)-1-cyclopropyl-7-fluoro-16-[2-fluoro-4-((R)-5-hydroxymethyl-2-oxo-oxazolidin-3-yl)-phenoxymethyl]-4-oxo-16-phosphonooxy-1,4,13,15,16,17-hexahydro-12H-11-oxa-1,14-diaza-cyclopenta[a]phenanthrene-3-carboxylic acid]
- MIC ([1]; A798, in the presence of human alkaline phosphatase, read-out: MIC against S. aureus A798): 0.25 µg/mL
- MIC ([1]; A798, phosphatase absent, read-out: MIC against S. aureus A798): 4 µg/mL (≈ 5.89 µM)

SMILES: O=C(O)c1c[nH]c2c3c(c(F)cc2c1=O)N1C[C@](O)(COc2ccc(N4C[C@H](CO)OC4=O)cc2F)C[C@H]1CO3 [Example 9, (13S,16S)-7-fluoro-16-[2-fluoro-4-((R)-5-hydroxymethyl-2-oxo-oxazolidin-3-yl)-phenoxymethyl]-16-hydroxy-4-oxo-1,4,13,15,16,17-hexahydro-12H-11-oxa-1,14-diaza-cyclopenta[a]phenanthrene-3-carboxylic acid]
- MIC [3, 5]: 0.25 µg/mL (≈ 0.447 µM)

SMILES: C[C@H](N)C(=O)OC[C@H]1CN(c2ccc(OC[C@]3(O)C[C@H]4COc5c(c(F)cc6c(=O)c(C(=O)O)cn(C7CC7)c56)N4C3)c(F)c2)C(=O)O1.Cl [Example 11, (13S,16S)-16-{4-[(R)-5-((S)-2-amino-propionyloxymethyl)-2-oxo-oxazolidin-3-yl]-2-fluoro-phenoxymethyl}-1-cyclopropyl-7-fluoro-16-hydroxy-4-oxo-1,4,13,15,16,17-hexahydro-12H-11-oxa-1,14-diaza-cyclopenta[a]phenanthrene-3-carboxylic acid hydrochloride]
- MIC ([3]; in the absence of human serum, read-out: MIC against S. Pneumoniae 49619): ≤ 0.063 µg/mL

SMILES: O=C(O)c1cn(C2CC2)c2c3c(c(F)cc2c1=O)N1C[C@](O)(COc2ccc(N4C[C@H](COC(=O)C5CCNCC5)OC4=O)cc2F)C[C@H]1CO3 [Example 12, (13S,16S)-1-cyclopropyl-7-fluoro-16-{2-fluoro-4-[(R)-2-oxo-5-(piperidine-4-carbonyloxymethyl)-oxazolidin-3-yl]-phenoxymethyl}-16-hydroxy-4-oxo-1,4,13,15,16,17-hexahydro-12H-11-oxa-1,14-diaza-cyclopenta[a]phenanthrene-3-carboxylic acid]
- MIC ([1]; A798, human serum absent, read-out: MIC against S. aureus A798): 8 µg/mL (≈ 11.3 µM)
- MIC ([1]; A798, in the presence of human serum, read-out: MIC against S. aureus A798): 2 µg/mL
